In PubChem BioAssay (NCI):
“And” between values parts separate entries of the source, which are not always exact repeats. Equal values may be shown once.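 Assay format: 96-well plates, 48-hour exposure. Here, GI50 denotes the concentration required for 50% inhibition of growth. TGI marks complete inhibition of growth.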

Key:
Test in all cases: DTP human tumour cell line panel, 48 h
[1] = tested on: MCF7 breast
[2] = tested on: SK-OV-3 ovarian
[3] = tested on: HCT-116 colon
[4] = tested on: HOP-62 NSCLC
[5] = tested on: DU-145 prostate
[6] = tested on: OVCAR-5 ovarian
[7] = tested on: HL-60(TB) leukemia
[8] = tested on: SK-MEL-5 melanoma
[9] = tested on: A549 NSCLC
[10] = tested on: COLO 205 colon

Structure (SMILES) | TGI [1] [µM] | GI50 [2] | TGI [2] [µM] | TGI [3] | GI50 [4] | TGI [4] | GI50 [5] | TGI [5] [µM] | GI50 [6] | TGI [6] [µM] | TGI [7] | TGI [8] | TGI [9] [µM] | TGI [10] [µM] | GI50 [1] [µM] | GI50 [3] [µM] | GI50 [7] [µM] | GI50 [8] [µM] | GI50 [9] [µM] | GI50 [10] [µM]
CC1(C)C2CC(=O)C1(C)C(OCc1ccccc1)C2Br (stereo unspecified) | > 100 | 41.5 µM and > 100 µM | > 100 | 39.8 µM and > 100 µM | 16.3 µM and 54.3 µM | 33.9 µM and > 100 µM | 29.7 µM and 86.8 µM | > 100 | 32.2 µM and > 100 µM | > 100 | 50.2 µM and 62.1 µM | 29.3 µM and > 100 µM | > 100 |  |  |  |  |  |  | 
CC1=C(\C=C/C(C)=C/C=C/C(C)=C/C=C/C=C(C)\C=C\C=C(C)/C=C/C2=C(C)CCCC2(C)C)C(C)(C)CCC1 | > 100 |  | > 100 | 71.9 µM |  | > 100 µM |  | > 100 |  | > 100 |  | > 100 µM |  | > 100 |  |  |  |  |  | 
CC1=C(C(=S)Nc2ccc(Cl)c(C(=O)OC(C)C)c2)SCCO1 | > 100 |  | 54.8 | 28.6 µM |  |  |  | 57.1 |  | > 100 | 37.2 µM | 30.8 µM | 84.1 | 37.4 |  |  |  |  |  | 
CCCCCCCCCC(=O)Oc1ccc(/C(=C(/C)c2ccccc2)c2ccc(OCCN3CCCC3)cc2)cc1 | 10.3 | 7.36 µM | 14.8 | 15.7 µM | 8.75 µM | 17.3 µM | 8 µM | 14.8 | 8.56 µM | 16.5 | 18.7 µM | 14.9 µM | 17.7 |  | 0.005 | 8.01 | 9.24 | 8.13 | 9.35 | 
COc1ccc2c(Cl)cc(NC(=S)Nc3ccccc3)nc2c1 | > 100 |  | 61.1 | 49.1 µM |  | > 100 µM |  | > 100 |  | 99.6 |  | > 100 µM | > 100 | > 100 |  |  |  |  |  | 
CCCCCCNC(=O)CCN(C(=O)O)S(=O)(=O)c1ccc(NC(=O)c2ccccc2)cc1 |  |  | > 100 | > 59.5 µM |  | > 100 µM |  |  |  | > 100 | > 64.2 µM | > 100 µM | > 66.2 | > 59.8 |  |  |  |  |  | 
Cc1ccc2nc(CN(CCN(Cc3nc4ccc(C)cc4[nH]3)Cc3nc4ccc(C)cc4[nH]3)Cc3nc4ccc(C)cc4[nH]3)[nH]c2c1 |  | 1.88 µM | 3.35 |  | 1.83 µM | 3.24 µM | 1.79 µM | 3.18 | 1.63 µM | 3 |  | 3.06 µM | 3.54 | 3.15 |  |  |  | 1.69 | 1.86 | 1.7
O=C(CC1(O)C(=O)Nc2ccccc21)c1cccc(O)c1 (stereo unspecified) |  |  | > 100 | > 100 µM |  | > 100 µM |  |  |  | > 100 | > 100 µM | > 100 µM | > 100 | > 100 |  |  |  |  |  | 
COc1cccc(NC(=O)/C(CS(=O)(=O)CCC(C(C)=O)C(C)=O)=N\NC(C)(C)C)c1 |  |  | > 100 | > 100 µM |  | > 100 µM |  |  |  | > 100 | > 100 µM | > 100 µM | > 100 | > 100 |  |  |  |  |  | 
CC(=O)O[C@H]1CSC[C@@H](OC(C)=O)C1[N+](=O)[O-] (stereo partly specified) |  |  | > 100 | > 100 µM |  | > 100 µM |  |  |  | > 100 | 54.6 µM | > 100 µM | > 100 | 49.1 |  |  |  |  |  | 
O=C(/C=C/c1ccco1)Nc1ncc(Cc2cc(Cl)ccc2Cl)s1 | > 100 | 0.0538 µM | > 100 | > 100 µM | 0.0645 µM | > 76.5 µM | 0.055 µM | > 41.6 | 0.257 µM | > 100 | 0.159 µM | > 64.8 µM | > 100 |  | 0.0359 | 0.0509 | 0.0482 | 0.0441 | 0.108 | 
Cc1ccccc1NC(=O)C(=O)C(C(=O)c1ccccc1F)C1OC(=O)c2ccccc21 (stereo unspecified) |  |  | > 100 | 29.1 µM |  | 44.4 µM |  |  |  | > 100 | 56.5 µM | 86.5 µM | > 100 | 45.1 |  |  |  |  |  | 
COC(=O)CC(=O)OC1C[C@@H]2CCC3C(C)(C)CCC[C@]3(C)C23CC[C@@]1(C)C3 (stereo partly specified) |  |  | 52.4 | 31.4 µM |  | 34.1 µM |  |  |  | 29.6 | > 100 µM | 31.7 µM | 65.1 | 33.9 |  |  |  |  |  | 
C=C(C)[C@@H]1CC[C@]2(C(=O)O)CC[C@]3(C)[C@H](CC[C@@H]4[C@@]5(C)CCC(N)C(C)(C)[C@@H]5CC[C@]43C)[C@@H]12 (stereo partly specified) |  | > 100 µM | > 100 |  | 2.49 µM | 7 µM | 3.07 µM | > 100 |  |  |  |  |  |  |  |  |  |  |  | 
CN(C(=O)C12C3C4C1C1C2C3C41C#N)C(C)(C)C (stereo unspecified) |  |  | > 100 | > 100 µM |  | > 100 µM |  |  |  | > 100 | > 100 µM | > 100 µM | > 100 | > 100 |  |  |  |  |  | 
